# Measurements as given in patent publication US7259140B2, “Heparin-binding peptides and uses thereof” (Thomas Jefferson University, priority 2003, dated 2007).
# Ends that are not written are not given here.
# System: anti-Factor Xa activity of Lovenox®
# Assay: In vivo neutralization of the LMWH Lovenox in rats (anti-Factor Xa assay of plasma)
# Procedure: Experiments were performed to test the ability of heparin-binding peptides of the invention to neutralize low molecular weight heparins which are used clinically, such as Lovenox®. To this end, rats were cannulated in the jugular and femoral veins. Lovenox® was injected through the jugular vein, and three minutes later the peptide was injected via the jugular vein. The peptides tested included (ARKKAAKA)4 (SEQ ID NO:31), C(ARKKAAKA)4C (SEQ ID NO:34), (ARKKAAKA)3ARKKCAKA (SEQ ID NO:33), and (ARKKAAKA)3VLVLVLVL (SEQ ID NO:5). Blood was collected from the femoral vein. 0.1 ml was collected at each time point. Plasma was prepared from each tube, and the anti-Factor Xa assay was performed.
# Results. The dose response of each peptide from 2 mg/300 gm to 0.5 mg/300 gm was tested and a representative dose (1.0 mg) is shown in FIG. 4. […] The absorbance is inversely proportional to the heparin concentration. There is no heparin present when A405=0.7, and about 1 U/ml when A405=0.4. The events at the arrows are indicated in the box insert.
sequence,measurement,value
ARKKAAKAARKKAAKAARKKAAKAVLVLVLVL [(ARKKAAKA)3VLVLVLVL],rank in in vivo neutralization of Lovenox,most effective at the lowest dose
